# In patent US20220380383A1, “NEUROPROTECTIVE PDI MODULATING SMALL MOLECULES AND METHODS OF USE THEREOF” (THE TRUSTEES OF COLUMBIA UNIVERSITY IN THE CITY OF NEW YORK, priority 2018, published 2022):
# “Also recorded” adds a separate entry of the source. Like-named read-outs stand apart in the source and are kept apart here.
# What was measured:
# [1] = tested on: PC12 mHTTQ103 cells; assay: Rescue of PC12 cells from mHTTQ103-induced cell death; assay type: cell-based, rat; conditions: for EC50: Rattus norvegicus, PC-12
# [2] = biological target: T1, wild-type PDIa (Homo sapiens, UniProt P07237); assay: MALDI-TOF mass spectrometry with wild-type PDIa; assay type: binding
# T1 construct: made in house; host or cells: Escherichia coli BL21-Gold (DE3)
# Text: As mentioned, we synthesized several fluorine-containing analogs of LOC14 (analogs LC-43 and LC-40). Addition of fluorine was the only modification that was tolerated at the ortho position without a complete loss of activity in cells and in targeting PDI in vitro (Table 9). […] We hypothesized that these compounds might be binding to PDI covalently, and therefore would not show heat evolution by calorimetry. To test this hypothesis, we conducted MALDI-TOF mass-spectrometry experiments with wild-type PDIa and LC-43. […] This confirmed that LC-43 did indeed bind to PDIa, and that this binding was […]. The lack of binding by ITC might be again caused because LC-43 interaction with PDI is entropy-driven with small enthalpic changes. […] Additionally, we evaluated LC-43 using a genetically encoded redox reporter transfected into neurons. […] In contrast, treatment with the non-selective reducing agent dithiothreitol (DTT) produces an immediate and dramatic reduction in the roGFP2 fluorescence ratio that leads rapidly to cell degeneration and death (FIG. 16D). […] This single fluorine atom substitution in LOC14 structure seems to be an improvement in the design of compounds with more favorable drug properties.
# [3] = biological target: PDI (Homo sapiens, UniProt P07237); assay: Enzymatic assay for inhibition of PDI using insulin as substrate; assay type: biochemical
# [4] = tested on: cortical pyramidal neurons in rat coronal brain slice explants co-transfected with YFP and Tau-4R; assay: AD brain slice model (Tau-4R); assay type: cell-based
# Text: The cortical regions of each brain slice were then scored for numbers of healthy pyramidal neurons remaining. Data are plotted as means±SEM. Graph represents an average of 3 independent experimental runs. Significant difference is denoted with * with respect to the Tau-4R condition by ANOVA followed by Dunnett's post hoc comparison test at p<0.05.
# To see if the mechanism of LOC14 protection can ameliorate other neurodegenerative disease phenotypes, we used a brain slice model of Alzheimer's disease (AD) in which the degeneration of cortical pyramidal neurons is induced via transfected tau protein containing four repeats of the microtubulin-binding domain (Tau-4R). Rat coronal brain slice explants were co-transfected with YFP and Tau-4R and treated with LOC14, benzoisothiazolone, or DMSO vehicle-only for 3 days. The cortical region of each brain slice was then scored for number of healthy pyramidal neurons remaining.
# [5] = Solubility (stock solvent)
# [6] = biological target: T2, 15N-labeled PDIa (Homo sapiens, UniProt P07237); assay: 1H-15N HSQC NMR of PDIa; assay type: binding
# T2 construct: His6 (N, cleaved yes); made in house; host or cells: Escherichia coli BL21-Gold (DE3), M9 minimal medium with 15NH4Cl
# Procedure: The ^1H-^15N HSQC spectra were performed on Bruker Avance III 500 Ascend (500 MHz) spectrometers at 300 K. The uniformly ^15N-labeled PDIa was dissolved at 50 μM or 100 μM in 90% H2O/10% D20 (v/v), pH 5.1. The ^1H carrier frequency was positioned at the water resonance. The ^15N carrier frequency was positioned at 115 ppm. The spectral width in the ^1H dimension was 7500 Hz and the width in ω1 (^15N) dimension was 1824.6 Hz. Suppression of water signal was accomplished using the WATERGATE sequence. Heteronuclear decoupling was accomplished using GARP decoupling scheme.
# [7] = biological target: T3, NAV1.5 (Homo sapiens, UniProt Q14524); assay: Safety47 panel ion channel NAV1.5; assay type: cell-based; conditions: Blocker mode; 3 μM
# T3 construct: CEREP (CRO panel)
# Text: (§1) LOC14 was also submitted for testing in CEREP's Safety47 panel. CEREP is a CRO specializing in preclinical research, discovery and development of new pharmaceutical drugs.
# [8] = biological target: T4, COX2 (Homo sapiens, UniProt P35354); assay: Safety47 panel non-kinase enzyme COX2; assay type: biochemical; conditions: Inhibitor mode; 3 μM
# T4 construct: CEREP (CRO panel)
# Text: as §1
# [9] = biological target: T5, GR (Homo sapiens, UniProt P04150); assay: Safety47 panel nuclear hormone receptor GR; assay type: cell-based; conditions: 3 μM
# T5 construct: CEREP (CRO panel)
# Text: as §1
# [10] = biological target: Muscarinic M3 (Homo sapiens, UniProt P20309); assay: Off-target panel, Muscarinic M3; assay type: binding; conditions: Conc. 3 μM
# [11] = biological target: T6, AR (Homo sapiens, UniProt P10275); assay: Safety47 panel nuclear hormone receptor AR; assay type: cell-based; conditions: 3 μM
# T6 construct: CEREP (CRO panel)
# Text: as §1
# [12] = biological target: Adrenergic β2 (Homo sapiens, UniProt P07550); assay: Off-target panel, Adrenergic β2; assay type: binding; conditions: Conc. 3 μM
# [13] = biological target: T7, INSR (Homo sapiens, UniProt P06213); assay: Safety47 panel kinase INSR; assay type: biochemical; conditions: Inhibitor mode; 3 μM
# T7 construct: CEREP (CRO panel)
# Text: as §1
# [14] = biological target: Dopamine D2S (Homo sapiens, UniProt P14416); assay: Off-target panel, Dopamine D2S; assay type: binding; conditions: Conc. 3 μM
# [15] = biological target: T8, SERT (Homo sapiens, UniProt P31645); assay: Safety47 panel transporter SERT; assay type: cell-based; conditions: Blocker mode; 3 μM
# T8 construct: CEREP (CRO panel)
# Text: as §1
# [16] = biological target: T9, PDE3A (Homo sapiens, UniProt Q14432); assay: Safety47 panel non-kinase enzyme PDE3A; assay type: biochemical; conditions: Inhibitor mode; 3 μM
# T9 construct: CEREP (CRO panel)
# Text: as §1
# [17] = biological target: Potassium Channel hERG (Homo sapiens, UniProt Q12809); assay: in vitro
# Text: Additionally, we tested LOC14 in CEREP's Safety47 panel, an in vitro pharmacological profiling to determine off-target liabilities that might exist against 47 human targets associated with safety issues (Table 3 and Table 4).
# [18] = biological target: Cannabinoid CB1 (Homo sapiens, UniProt P21554); assay: Off-target panel, Cannabinoid CB1; assay type: binding; conditions: Conc. 3 μM
# [19] = biological target: T10, MAOA (Homo sapiens, UniProt P21397); assay: Safety47 panel non-kinase enzyme MAOA; assay type: biochemical; conditions: Inhibitor mode; 3 μM
# T10 construct: CEREP (CRO panel)
# Text: as §1
# [20] = biological target: Prostanoid EP4 (Homo sapiens, UniProt P35408); assay: Off-target panel, Prostanoid EP4; assay type: binding; conditions: Conc. 3 μM
# [21] = biological target: T11, PDE4D2 (Homo sapiens, UniProt Q08499); assay: Safety47 panel non-kinase enzyme PDE4D2; assay type: biochemical; conditions: Inhibitor mode; 3 μM
# T11 construct: CEREP (CRO panel)
# Text: as §1
# [22] = biological target: T12, LCK (Homo sapiens, UniProt P06239); assay: Safety47 panel kinase LCK; assay type: biochemical; conditions: Inhibitor mode; 3 μM
# T12 construct: CEREP (CRO, Safety47 panel)
# Text: as §1
# [23] = Tables 5-13, PC12 cells, read-out: EC50
# [24] = rescue from mHTTQ103 induced cell death
# [25] = Tables 5-13, solvent not given (DMSO in Table 1)
# T6 sequence (P10275 whole entry): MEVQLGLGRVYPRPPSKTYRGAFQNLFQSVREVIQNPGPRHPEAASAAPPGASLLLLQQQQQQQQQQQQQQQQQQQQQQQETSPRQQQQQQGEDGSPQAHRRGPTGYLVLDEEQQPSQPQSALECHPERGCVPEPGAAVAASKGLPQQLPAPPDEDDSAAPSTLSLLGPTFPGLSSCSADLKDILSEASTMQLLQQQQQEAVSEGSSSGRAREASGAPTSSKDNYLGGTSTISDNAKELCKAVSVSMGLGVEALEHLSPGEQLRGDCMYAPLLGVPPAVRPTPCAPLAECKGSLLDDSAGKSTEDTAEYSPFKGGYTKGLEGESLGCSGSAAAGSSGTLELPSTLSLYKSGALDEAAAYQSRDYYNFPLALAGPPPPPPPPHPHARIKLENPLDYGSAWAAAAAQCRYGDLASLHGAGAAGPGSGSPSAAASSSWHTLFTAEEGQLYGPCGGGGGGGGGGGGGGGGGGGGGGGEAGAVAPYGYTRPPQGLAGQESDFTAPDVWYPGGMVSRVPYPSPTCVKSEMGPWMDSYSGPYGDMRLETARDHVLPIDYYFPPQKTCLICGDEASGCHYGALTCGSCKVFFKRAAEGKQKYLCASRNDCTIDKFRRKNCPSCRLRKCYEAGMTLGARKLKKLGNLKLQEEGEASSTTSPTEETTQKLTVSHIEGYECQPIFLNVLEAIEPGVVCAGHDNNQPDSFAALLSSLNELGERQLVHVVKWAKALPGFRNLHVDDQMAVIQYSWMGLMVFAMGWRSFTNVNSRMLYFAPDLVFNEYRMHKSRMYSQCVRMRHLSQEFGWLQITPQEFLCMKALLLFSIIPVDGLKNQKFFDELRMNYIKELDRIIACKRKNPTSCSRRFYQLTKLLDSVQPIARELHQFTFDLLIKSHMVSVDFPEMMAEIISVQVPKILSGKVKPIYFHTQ
# T5 sequence (P04150 whole entry): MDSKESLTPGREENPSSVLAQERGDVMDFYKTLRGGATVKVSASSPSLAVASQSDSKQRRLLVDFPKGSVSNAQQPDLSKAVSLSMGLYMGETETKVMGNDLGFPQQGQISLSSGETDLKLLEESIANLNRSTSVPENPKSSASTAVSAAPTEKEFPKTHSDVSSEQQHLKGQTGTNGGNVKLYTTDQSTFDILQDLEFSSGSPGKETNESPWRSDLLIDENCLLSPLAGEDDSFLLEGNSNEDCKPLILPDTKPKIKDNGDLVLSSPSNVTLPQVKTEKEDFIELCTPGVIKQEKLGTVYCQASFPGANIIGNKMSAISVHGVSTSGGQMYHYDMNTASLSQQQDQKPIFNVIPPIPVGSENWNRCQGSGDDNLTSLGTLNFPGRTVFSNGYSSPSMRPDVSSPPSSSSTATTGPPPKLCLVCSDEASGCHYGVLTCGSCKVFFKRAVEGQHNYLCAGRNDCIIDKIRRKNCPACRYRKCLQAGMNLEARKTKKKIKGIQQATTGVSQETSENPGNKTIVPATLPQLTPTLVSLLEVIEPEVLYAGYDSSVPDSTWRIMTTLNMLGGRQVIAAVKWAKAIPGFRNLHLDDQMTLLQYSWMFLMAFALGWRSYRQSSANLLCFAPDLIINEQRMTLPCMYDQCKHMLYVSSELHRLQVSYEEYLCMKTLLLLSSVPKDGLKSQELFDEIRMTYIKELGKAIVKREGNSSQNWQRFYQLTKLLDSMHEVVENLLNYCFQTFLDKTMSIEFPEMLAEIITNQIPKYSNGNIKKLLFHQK
# T1 sequence (P07237 18-134): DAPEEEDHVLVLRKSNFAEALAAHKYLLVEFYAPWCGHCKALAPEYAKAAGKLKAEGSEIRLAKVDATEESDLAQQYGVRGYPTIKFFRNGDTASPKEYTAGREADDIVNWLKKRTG
# T2 sequence (P07237 18-134): as above
# T10 sequence (P21397 whole entry): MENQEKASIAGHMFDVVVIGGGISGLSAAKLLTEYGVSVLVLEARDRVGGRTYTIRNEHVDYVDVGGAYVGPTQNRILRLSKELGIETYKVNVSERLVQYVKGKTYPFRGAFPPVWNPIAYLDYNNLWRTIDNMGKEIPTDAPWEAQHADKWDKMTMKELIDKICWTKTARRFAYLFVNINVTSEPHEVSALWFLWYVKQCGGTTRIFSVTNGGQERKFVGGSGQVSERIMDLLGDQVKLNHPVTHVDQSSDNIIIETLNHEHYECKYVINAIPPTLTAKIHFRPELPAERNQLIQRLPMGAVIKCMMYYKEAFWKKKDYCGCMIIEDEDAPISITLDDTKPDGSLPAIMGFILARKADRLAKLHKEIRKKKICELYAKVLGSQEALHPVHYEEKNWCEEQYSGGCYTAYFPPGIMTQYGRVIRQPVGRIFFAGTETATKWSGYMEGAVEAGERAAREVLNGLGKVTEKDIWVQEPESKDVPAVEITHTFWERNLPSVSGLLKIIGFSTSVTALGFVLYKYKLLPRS
# Sequence of Potassium Channel hERG (Q12809 whole entry): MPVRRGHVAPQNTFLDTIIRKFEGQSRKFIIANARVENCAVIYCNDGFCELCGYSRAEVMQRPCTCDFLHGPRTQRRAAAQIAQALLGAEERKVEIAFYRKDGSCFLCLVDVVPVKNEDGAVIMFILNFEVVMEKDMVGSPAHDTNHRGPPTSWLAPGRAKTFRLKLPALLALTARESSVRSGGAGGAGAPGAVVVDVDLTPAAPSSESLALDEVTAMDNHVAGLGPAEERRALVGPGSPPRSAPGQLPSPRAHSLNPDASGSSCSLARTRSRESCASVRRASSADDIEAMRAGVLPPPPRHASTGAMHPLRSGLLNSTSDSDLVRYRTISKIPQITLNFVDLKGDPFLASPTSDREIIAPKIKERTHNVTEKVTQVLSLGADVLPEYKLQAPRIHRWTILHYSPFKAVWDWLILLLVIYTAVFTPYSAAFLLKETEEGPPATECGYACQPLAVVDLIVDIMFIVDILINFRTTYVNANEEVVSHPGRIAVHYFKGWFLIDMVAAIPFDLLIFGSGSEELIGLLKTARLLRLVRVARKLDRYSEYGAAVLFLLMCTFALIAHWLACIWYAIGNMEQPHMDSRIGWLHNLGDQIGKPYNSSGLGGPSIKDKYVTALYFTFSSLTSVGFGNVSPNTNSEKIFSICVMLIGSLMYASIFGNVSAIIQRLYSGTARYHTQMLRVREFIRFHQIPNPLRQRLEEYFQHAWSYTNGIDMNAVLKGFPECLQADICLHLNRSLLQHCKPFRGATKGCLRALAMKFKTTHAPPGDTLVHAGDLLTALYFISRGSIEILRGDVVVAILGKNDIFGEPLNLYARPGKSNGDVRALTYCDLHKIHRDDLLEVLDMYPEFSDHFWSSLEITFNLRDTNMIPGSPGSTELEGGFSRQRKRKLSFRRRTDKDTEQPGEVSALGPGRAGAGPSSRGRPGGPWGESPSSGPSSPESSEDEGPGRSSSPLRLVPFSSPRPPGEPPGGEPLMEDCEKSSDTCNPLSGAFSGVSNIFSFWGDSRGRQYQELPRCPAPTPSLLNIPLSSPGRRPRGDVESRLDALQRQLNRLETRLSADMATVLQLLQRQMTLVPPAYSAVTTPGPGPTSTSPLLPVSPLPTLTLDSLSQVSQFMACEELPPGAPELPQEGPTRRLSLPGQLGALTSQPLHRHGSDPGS
# Sequence of Prostanoid EP4 (P35408 whole entry): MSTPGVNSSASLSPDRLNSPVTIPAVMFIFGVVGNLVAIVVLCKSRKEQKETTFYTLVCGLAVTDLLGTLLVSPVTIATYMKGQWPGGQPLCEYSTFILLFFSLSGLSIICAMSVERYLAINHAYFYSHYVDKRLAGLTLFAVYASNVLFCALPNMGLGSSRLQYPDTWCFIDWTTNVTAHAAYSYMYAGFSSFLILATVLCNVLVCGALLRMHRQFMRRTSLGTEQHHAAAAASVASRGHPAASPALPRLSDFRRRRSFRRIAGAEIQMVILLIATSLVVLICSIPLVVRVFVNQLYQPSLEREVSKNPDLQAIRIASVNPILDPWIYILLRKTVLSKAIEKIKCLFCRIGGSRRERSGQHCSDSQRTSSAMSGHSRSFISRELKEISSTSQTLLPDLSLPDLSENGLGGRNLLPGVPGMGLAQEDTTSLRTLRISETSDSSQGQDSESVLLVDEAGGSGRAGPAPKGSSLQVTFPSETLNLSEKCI
# Sequence of Adrenergic β2 (P07550 whole entry): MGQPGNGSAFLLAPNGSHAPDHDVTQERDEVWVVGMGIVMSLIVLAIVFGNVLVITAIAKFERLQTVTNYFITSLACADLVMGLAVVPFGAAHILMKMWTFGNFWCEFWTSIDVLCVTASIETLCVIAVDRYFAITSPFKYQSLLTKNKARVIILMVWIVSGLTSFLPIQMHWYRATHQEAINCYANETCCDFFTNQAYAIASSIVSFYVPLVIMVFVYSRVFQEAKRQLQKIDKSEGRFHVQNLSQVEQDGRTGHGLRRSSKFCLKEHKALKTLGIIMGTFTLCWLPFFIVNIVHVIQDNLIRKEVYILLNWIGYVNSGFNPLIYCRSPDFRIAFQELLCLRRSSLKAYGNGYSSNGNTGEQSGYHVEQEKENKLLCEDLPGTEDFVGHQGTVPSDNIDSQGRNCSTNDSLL
# Sequence of PDI (P07237 18-508): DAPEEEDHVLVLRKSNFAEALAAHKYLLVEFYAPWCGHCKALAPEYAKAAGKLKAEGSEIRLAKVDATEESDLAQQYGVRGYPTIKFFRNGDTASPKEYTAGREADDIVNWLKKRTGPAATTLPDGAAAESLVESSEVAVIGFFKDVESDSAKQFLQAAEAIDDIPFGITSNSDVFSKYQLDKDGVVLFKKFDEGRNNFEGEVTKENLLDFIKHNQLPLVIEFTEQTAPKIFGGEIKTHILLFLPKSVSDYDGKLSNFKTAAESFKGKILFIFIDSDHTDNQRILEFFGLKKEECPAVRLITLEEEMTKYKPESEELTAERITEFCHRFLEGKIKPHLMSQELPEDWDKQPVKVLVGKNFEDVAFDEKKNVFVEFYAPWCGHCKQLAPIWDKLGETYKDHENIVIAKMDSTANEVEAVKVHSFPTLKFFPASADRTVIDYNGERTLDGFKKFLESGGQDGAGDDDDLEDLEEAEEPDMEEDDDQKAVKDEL
structure (smiles),measurement,setting,value
O=C(C1CC1)N1CCN(Cn2sc3c(F)cccc3c2=O)CC1 [LC-43],EC50,[1]; [23],7410 nM
same,Max Viability (%),"[1]; Tables 5-13, PC12 cells",56%
same,PC12 cells Max % Viability,[1]; [24],56.48%
same,change in mass of wild-type PDIa (MALDI-TOF),[2],no change in mass
same,inhibition of enzymatic (reductase) activity of PDI,[3],able to inhibit the enzymatic activity of PDI
same,protection of pyramidal neurons in AD brain slice,[4]; 3 days treatment,dose-dependent rescue; also recorded: robust neuroprotection
same,concentration that provided peak rescue,[4]; AD brain slice assay,10 µM
same,Solubility,[5],100 mM in DMSO
same,Solubility,[5]; [25],100 mM
same,chemical shift changes in PDIa (1H-15N HSQC),[6],same chemical shift changes in the active site as induced by LOC14
O=C(C1CC1)N1CCN(Cn2sc3ccccc3c2=O)CC1 [LOC14],Average,[7],7.0
same,EC50,[1]; [23],352 nM
same,EC50,"[1]; rescue from mHTTQ103 induced cell death, read-out: PC12 cells EC50",352 nM
same,Max Viability (%),"[1]; Tables 5-13, PC12 cells",66%
same,EC100,"[1]; protection from mHTT toxicity, FIG. 13A",3.1 µM
same,PC12 cells Max % Viability,[1]; [24],66.25%
same,Average,[8],2.8
same,Average,[9]; Agonist mode,0.0
same,Average,[9]; Antagonist mode,0.1
same,inhibition at 3 µM,[10],-4%
same,Average,[11]; Agonist mode,0.0
same,Average,[11]; Antagonist mode,5.4
same,inhibition at 3 µM,[12],8%
same,Average,[13],22.7
same,inhibition at 3 µM,[14],0%
same,Average,[15],5.0
same,Average,[16],0.0
same,inhibition at 3 µM,[17],10%
same,inhibition at 3 µM,[18],-22%
same,Solubility,[5],100 mM in DMSO
same,Solubility,[5]; [25],100 mM
same,Average,[19],9.9
same,inhibition at 3 µM,[20],32%
same,Average,[21],0.0
same,Average,[22],16.1
